The text below walks through data of patent publication US20240066051A1 (priority 2022, published 2024).

One assay has as its target T1, S-protein RBD (WT) (Severe acute respiratory syndrome coronavirus 2, UniProt P0DTC2).
T1 construct: made in house; host or cells: Expi293F cells
It is filed as binding, SARS-CoV-2.

Assay [1] concerns the target T2, SARS-CoV-2 S-protein RBD WT (Severe acute respiratory syndrome coronavirus 2, UniProt P0DTC2).
T2 construct: made in house; host or cells: Expi293F cells
The assay is classed as binding. Conditions: immobilized heparin, 1:1 Langmuir global fit, 25° C.

Assay [2] deals with SARS-CoV-2 pseudotyped viral particles (wild-type). It is filed as binding.

On to `O=S(=O)(O)c1cc2c(O)c(c1)Cc1cc(S(=O)(=O)O)cc(c1O)Cc1cc(S(=O)(=O)O)cc(c1O)Cc1cc(S(=O)(=O)O)cc(c1O)Cc1cc(S(=O)(=O)O)cc(c1O)Cc1cc(S(=O)(=O)O)cc(c1O)Cc1cc(S(=O)(=O)O)cc(c1O)Cc1cc(S(=O)(=O)O)cc(c1O)C2` [GL-522-Y-1], for which the “inhibition of the S-protein-heparin interaction (FIG. 5)” value (shortened to “inhibition … (FIG. 5)”) at S-protein RBD (WT) is “more modest inhibition activity”. Regarding heparin, on S-protein RBD (WT) (read-out: IC50 against the S-protein RBD binding to immobilized heparin), the IC50 – broadly, the concentration at which inhibition is half-maximal – came out at 56 nM. In assay [1], the ka is 1427 1/MS and the kd is recorded as 2.5 × 10^−4 1/S. As to mucopolysaccharide polysulfate [MPS], the “inhibition … (FIG. 5)” value at S-protein RBD (WT) is “potently inhibited”. Besides, the “inhibition of pseudotyped viral particle binding to heparin surface compared with heparin control” value in assay [2] was “stronger inhibition”. For pentosan polysulfate [PPS], in that order: “potently inhibited” and “stronger inhibition”. For sulfated lactobionic acid, at S-protein RBD (WT), the “inhibition … (FIG. 5)” value was “more modest inhibition activity”.
